# Data reported in ChEMBL document CHEMBL4477244, “Synthesis and biological evaluation of matrine derivatives as anti-hepatocellular cancer agents” (Bioorg Med Chem Lett, 2016).
# Calls of active or inactive are those of the source. The calls are words filed in the database; no cut-off is given here.
# How the values were obtained:
# SGC-7901 = test: Antiproliferative activity against human SGC7901 cells after 48 hrs by MTT assay; assay type: functional, cell-based; details: SGC-7901, 48 h
# MCF7 = test: Antiproliferative activity against human MCF7 cells after 48 hrs by MTT assay; assay type: functional, cell-based; details: MCF7, 48 h
# A549 = test: Antiproliferative activity against human A549 cells after 48 hrs by MTT assay; assay type: functional, cell-based; details: A549, 48 h
# Bel-7402 [1] = test: Antiproliferative activity against human Bel7402 cells after 48 hrs by MTT assay; assay type: functional, cell-based; details: for IC50: Bel-7402, 48 h
# HepG2 [2] = test: Antiproliferative activity against human HepG2 cells after 48 hrs by MTT assay; assay type: functional, cell-based
# HepG2 [3] = test: Antiproliferative activity against human HepG2 cells at 5 to 40 uM by MTT assay; assay type: functional, cell-based; details: TDE = time-dependent effect
# Bel-7402 [4] = test: Antiproliferative activity against human Bel7402 cells at 5 to 40 uM by MTT assay; assay type: functional, cell-based; details: TDE = time-dependent effect
# Bel-7402 [5] = test: Cell cycle arrest in human Bel7402 cells assessed as accumulation at G1 phase after 24 hrs by propidium iodide staining-based flow cytometry; assay type: functional
# HepG2 [6] = test: Cell cycle arrest in human HepG2 cells assessed as accumulation at G1 phase after 24 hrs by propidium iodide staining-based flow cytometry; assay type: functional
# Bel-7402 [7] = test: Cell cycle arrest in human Bel7402 cells assessed as accumulation at G1 phase at 10 uM after 24 hrs by propidium iodide staining-based flow cytometry (reference value: 49%); assay type: functional
# Bel-7402 [8] = test: Cell cycle arrest in human Bel7402 cells assessed as accumulation at G1 phase at 20 uM after 24 hrs by propidium iodide staining-based flow cytometry (reference value: 49%); assay type: functional
# HepG2 [9] = test: Cell cycle arrest in human HepG2 cells assessed as accumulation at G1 phase at 10 uM after 24 hrs by propidium iodide staining-based flow cytometry (reference value: 48%); assay type: functional
# HepG2 [10] = test: Cell cycle arrest in human HepG2 cells assessed as accumulation at G1 phase at 20 uM after 24 hrs by propidium iodide staining-based flow cytometry (reference value: 48%); assay type: functional
# Bel-7402 [11] = test: Antimigratory activity in human Bel7402 cells assessed as cell migration at 10 uM incubated for 48 hrs by wound healing assay (reference value: 60%); assay type: functional
# Bel-7402 [12] = test: Antimigratory activity in human Bel7402 cells assessed as cell migration at 20 uM incubated for 48 hrs by wound healing assay (reference value: 60%); assay type: functional
# HepG2 [13] = test: Antimigratory activity in human HepG2 cells assessed as cell migration at 10 uM incubated for 48 hrs by wound healing assay (reference value: 58%); assay type: functional
# HepG2 [14] = test: Antimigratory activity in human HepG2 cells assessed as cell migration at 20 uM incubated for 48 hrs by wound healing assay (reference value: 58%); assay type: functional
# Bel-7402 [15] = test: Upregulation of P21 in human Bel7402 cells at 5 to 20 uM after 24 hrs by Western blot analysis; assay type: functional, cell-based
# Bel-7402 [16] = test: Upregulation of P27 in human Bel7402 cells at 5 to 20 uM after 24 hrs by Western blot analysis; assay type: functional, cell-based
# Bel-7402 [17] = test: Upregulation of E-cadherin in human Bel7402 cells after 48 hrs by Western blot analysis; assay type: functional, cell-based
# Bel-7402 [18] = test: Downregulation of N-cadherin in human Bel7402 cells after 48 hrs by Western blot analysis; assay type: functional, cell-based
# HepG2 [19] = test: Upregulation of E-cadherin in human HepG2 cells after 48 hrs by Western blot analysis; assay type: functional, cell-based
# HepG2 [20] = test: Downregulation of N-cadherin in human HepG2 cells after 48 hrs by Western blot analysis; assay type: functional, cell-based
# HepG2 [21] = test: Upregulation of P21 in human HepG2 cells at 5 to 20 uM after 24 hrs by Western blot analysis; assay type: functional, cell-based
# HepG2 [22] = test: Upregulation of P27 in human HepG2 cells at 5 to 20 uM after 24 hrs by Western blot analysis; assay type: functional, cell-based
smiles,measurement,setting,value
Cc1ccc2c(=O)c3c(oc2c1)N1C[C@@H]2CCC[N+]4([O-])CCC[C@@H]([C@H]24)[C@H]1CC3 (stereo partly specified),IC50,SGC-7901,57.1 µM
same,IC50,MCF7,53.3 µM
same,IC50,A549,73.8 µM
same,IC50,Bel-7402 [1],49.3 µM
O=c1c2c(oc3ccccc13)N1C[C@@H]3CCCN4CCC[C@@H]([C@H]34)[C@H]1CC2,IC50,SGC-7901,> 100 µM
same,IC50,MCF7,> 100 µM
same,IC50,A549,> 100 µM
same,IC50,Bel-7402 [1],> 100 µM
O=c1c2c(oc3ccc(O)cc13)N1C[C@@H]3CCCN4CCC[C@@H]([C@H]34)[C@H]1CC2,IC50,SGC-7901,> 100 µM
same,IC50,MCF7,> 100 µM
same,IC50,A549,> 100 µM
same,IC50,Bel-7402 [1],> 100 µM
O=c1c2c(oc3cccc(O)c13)N1C[C@@H]3CCCN4CCC[C@@H]([C@H]34)[C@H]1CC2,IC50,SGC-7901,> 100 µM
same,IC50,MCF7,> 100 µM
same,IC50,A549,> 100 µM
same,IC50,Bel-7402 [1],> 100 µM
Cc1cccc2c(=O)c3c(oc12)N1C[C@@H]2CCCN4CCC[C@@H]([C@H]24)[C@H]1CC3,IC50,SGC-7901,51.5 µM
same,IC50,MCF7,52.9 µM
same,IC50,A549,73.2 µM
same,IC50,Bel-7402 [1],40.7 µM
COc1ccc2c(=O)c3c(oc2c1)N1C[C@@H]2CCCN4CCC[C@@H]([C@H]24)[C@H]1CC3,IC50,SGC-7901,67.2 µM
same,IC50,MCF7,77.4 µM
same,IC50,A549,97.6 µM
same,IC50,Bel-7402 [1],48 µM
O=c1c2c(oc3cc(C(F)(F)F)ccc13)N1C[C@@H]3CCC[N+]4([O-])CCC[C@@H]([C@H]34)[C@H]1CC2 (stereo partly specified),IC50,SGC-7901,79.1 µM
same,IC50,MCF7,73.8 µM
same,IC50,A549,114 µM
same,IC50,Bel-7402 [1],66 µM
Cc1ccc2oc3c(c(=O)c2c1)CC[C@@H]1[C@H]2CCCN4CCC[C@@H](CN31)[C@@H]24,IC50,SGC-7901,40.5 µM
same,IC50,MCF7,57.1 µM
same,IC50,A549,97.2 µM
same,IC50,Bel-7402 [1],37 µM
O=c1c2c(oc3cc(O)ccc13)N1C[C@@H]3CCCN4CCC[C@@H]([C@H]34)[C@H]1CC2,IC50,SGC-7901,> 100 µM
same,IC50,MCF7,> 100 µM
same,IC50,A549,> 100 µM
same,IC50,Bel-7402 [1],> 100 µM
Cc1ccc2c(=O)c3c(oc2c1)N1C[C@@H]2CCCN4CCC[C@@H]([C@H]24)[C@H]1CC3,IC50,SGC-7901,46.8 µM
same,IC50,MCF7,48.6 µM
same,IC50,A549,52.9 µM
same,IC50,Bel-7402 [1],30.3 µM
O=C1CCC[C@@H]2[C@H]3CCCN4CCC[C@@H](CN12)[C@@H]34 [MATRINE],IC50,SGC-7901,1380 µM
same,IC50,MCF7,2500 µM
same,IC50,A549,3920 µM
same,Activity,Bel-7402 [1],Dose-dependent effect
same,IC50,Bel-7402 [1],2060 µM
O=c1c2c(oc3ccc(Cl)cc13)N1C[C@@H]3CCCN4CCC[C@@H]([C@H]34)[C@H]1CC2,IC50,SGC-7901,45.2 µM
same,IC50,MCF7,48.2 µM
same,IC50,A549,57 µM
same,IC50,Bel-7402 [1],36.2 µM
COc1cccc2oc3c(c(=O)c12)CC[C@@H]1[C@H]2CCCN4CCC[C@@H](CN31)[C@@H]24,IC50,SGC-7901,81.7 µM
same,IC50,MCF7,74.1 µM
same,IC50,A549,93.5 µM
same,IC50,Bel-7402 [1],69.5 µM
O=c1c2c(oc3cc(C(F)(F)F)ccc13)N1C[C@@H]3CCCN4CCC[C@@H]([C@H]34)[C@H]1CC2,IC50,SGC-7901,34.9 µM
same,IC50,MCF7,30.7 µM
same,IC50,A549,41.2 µM
same,IC50,Bel-7402 [1],31.4 µM
COc1cccc2c(=O)c3c(oc12)N1C[C@@H]2CCCN4CCC[C@@H]([C@H]24)[C@H]1CC3,IC50,SGC-7901,81.6 µM
same,IC50,MCF7,75.4 µM
same,IC50,A549,96.5 µM
same,IC50,Bel-7402 [1],71.9 µM
O=c1c2c(oc3cc(Cl)ccc13)N1C[C@@H]3CCCN4CCC[C@@H]([C@H]34)[C@H]1CC2,IC50,SGC-7901,28.9 µM
same,IC50,MCF7,28.1 µM
same,IC50,A549,36 µM
same,IC50,Bel-7402 [1],25.2 µM
same,Activity,HepG2 [2],Dose-dependent effect
same,Activity,HepG2 [3],Tde
same,Activity,Bel-7402 [4],Tde
same,Activity,Bel-7402 [5],Dose-dependent effect
same,Activity,HepG2 [6],Dose-dependent effect
same,Activity,Bel-7402 [7],67%
same,Activity,Bel-7402 [8],79%
same,Activity,HepG2 [9],54%
same,Activity,HepG2 [10],65%
same,Activity,Bel-7402 [11],75%
same,Activity,Bel-7402 [12],85%
same,Activity,HepG2 [13],80%
same,Activity,HepG2 [14],83%
same,Activity,Bel-7402 [15],Active
same,Activity,Bel-7402 [16],Active
same,Activity,Bel-7402 [17],Dose-dependent effect
same,Activity,Bel-7402 [18],Dose-dependent effect
same,Activity,HepG2 [19],Dose-dependent effect
same,Activity,HepG2 [20],Dose-dependent effect
same,Activity,HepG2 [21],Active
same,Activity,HepG2 [22],Active
